Source: US8715706B2, “Methods and devices for delivery of pharmaceutical agents within orifices of the body” (RDD Pharma, Ltd., priority 2009, dated 2014)

What was measured:
anal sphincter [1] = assay: Rectal manometry of resting and squeezing anal pressure tonus after Phenylephrine from localized drug release system; type: in vivo, human; set-up: Squeeze Rectal ref max / Squeeze Abs ref mean: unit not given here
Protocol: The measurements conducted included resting anal pressure tonus and squeezing anal pressure tonus.
The measurements were conducted using 40 mg and 80 mg of Phenylephprine as API, respectively. A Phenylephprine (API) solution was prepared at 45 degrees Celsius in a heated water bath. A 22 gauge dispensing needle (Techon Systems) was inserted through the tail and into the coated shell of the drug release system. While the shell was evacuated of air, one milliliter of Phenylephprine compound was delivered to the shell via a syringe attached to the needle. A clip was used to seal the tail and the system was left until the Phenylephrine became solid.
A rectal manometer was used to measure resting anal pressure tonus and squeezing anal pressure tonus at baseline (before insertion), […] amount of API in a volume of one milliliter. The API release time ranged between 20-25 minutes (the variation due to changes in the normal human body temperature). The results are shown below in Table III (40 mg) and Table IV (80 mg). Values shown in bold lettering in Table IV represent statistically significant difference (p<0.05) from baseline value, using paired t-test.

anal canal = conditions: topical, cited from earlier work
[2] = pK studies, rectal rate of absorption using drug release system; conditions: rectally, drug release system of Example 1, FIGS. 14 and 15
Excerpt: Accordingly, it is intended to embrace all such alternatives, modifications and variations that fall within the spirit and broad scope of the appended claims.

anal sphincter [3] = assay: Rectal manometry of resting anal pressure after Nifedipine from localized drug release system; type: in vivo, human; conditions: 90 minutes after insertion, N 6
Protocol: Six healthy individuals were selected for measuring resting anal pressure as a function of different doses of Nifedipine administered using a localized drug release system as per an embodiment of the present invention.
All dimensions are when empty before filling with API. When tested in a water bath, substantially all the API exited the shell within 40 minutes.
The measurements were conducted using 4 mg, 12 mg or 24 mg of Nifedipine as API, respectively. A Nifedipine (API) solution was prepared at 45 degrees Celsius in a heated water bath. A 22 gauge dispensing needle (Techon Systems) was inserted through the tail and into the coated shell of the drug release system. While the shell was evacuated of air, one milliliter of Nifedipine compound was delivered to the shell via a syringe attached to the needle. A clip was used to seal the tail and the system was left until the Nifedipine became solid.
A rectal manometry was used to measure resting anal pressure at baseline (before insertion) and 90 minutes after insertion of each shell with the relevant amount of API in a volume of one milliliter. The time of release of the API (API release time) ranged between 20-25 minutes (the variation due to changes in the normal human body temperature). FIGS. 12A and 12C graphically display the results of this study.

CNC[C@H](O)c1cccc(O)c1 [Phenylephrine]
Length HPV (anal sphincter [1]; 40 mg, 90 min): 2.2 cm | Length Verge to center (anal sphincter [1]; 40 mg, 90 min): 0.8 cm | Resting Abs ref Max (anal sphincter [1]; 40 mg, 90 min): 109.0 mm Hg | Resting Abs ref Mean (anal sphincter [1]; 40 mg, 90 min): 95.0 mm Hg | Resting rectal ref Max (anal sphincter [1]; 40 mg, 90 min): 105.1 mm Hg | Resting rectal ref Mean (anal sphincter [1]; 40 mg, 90 min): 91.2 mm Hg | Squeeze Abs ref mean (anal sphincter [1]; 40 mg, 90 min): 348.7 | Squeeze Rectal ref max (anal sphincter [1]; 40 mg, 90 min): 332.4 | Length HPV (anal sphincter [1]; 40 mg, 180 min): 2.1 cm | Length Verge to center (anal sphincter [1]; 40 mg, 180 min): 0.5 cm | Resting Abs ref Max (anal sphincter [1]; 40 mg, 180 min): 127.8 mm Hg | Resting Abs ref Mean (anal sphincter [1]; 40 mg, 180 min): 93.1 mm Hg | Resting rectal ref Max (anal sphincter [1]; 40 mg, 180 min): 124.0 mm Hg | Resting rectal ref Mean (anal sphincter [1]; 40 mg, 180 min): 89.2 mm Hg | Squeeze Abs ref mean (anal sphincter [1]; 40 mg, 180 min): 336.5 | Squeeze Rectal ref max (anal sphincter [1]; 40 mg, 180 min): 318.8 | Length HPV (anal sphincter [1]; 40 mg, 240 min): 2.5 cm | Length Verge to center (anal sphincter [1]; 40 mg, 240 min): 0.8 cm | Resting Abs ref Max (anal sphincter [1]; 40 mg, 240 min): 94.2 mm Hg | Resting Abs ref Mean (anal sphincter [1]; 40 mg, 240 min): 82.5 mm Hg | Resting rectal ref Max (anal sphincter [1]; 40 mg, 240 min): 88.7 mm Hg | Resting rectal ref Mean (anal sphincter [1]; 40 mg, 240 min): 77.0 mm Hg | Squeeze Abs ref mean (anal sphincter [1]; 40 mg, 240 min): 376.7 | Squeeze Rectal ref max (anal sphincter [1]; 40 mg, 240 min): 363.3 | mean resting anal pressure (anal sphincter [1]; 80 mg in 1 cc volume (8% concentration)): significant increase in the mean resting anal pressure | Length HPV (anal sphincter [1]; 80 mg, 90 min): 2.2 cm | Length Verge to center (anal sphincter [1]; 80 mg, 90 min): 0.5 cm | Resting Abs ref Max (anal sphincter [1]; 80 mg, 90 min): 139.9 mm Hg | Resting Abs ref Mean (anal sphincter [1]; 80 mg, 90 min): 107.6 mm Hg | Resting rectal ref Max (anal sphincter [1]; 80 mg, 90 min): 136.5 mm Hg | Resting rectal ref Mean (anal sphincter [1]; 80 mg, 90 min): 104.2 mm Hg | Squeeze Abs ref mean (anal sphincter [1]; 80 mg, 90 min): 364.1 | Squeeze Rectal ref max (anal sphincter [1]; 80 mg, 90 min): 352.4 | Length HPV (anal sphincter [1]; 80 mg, 180 min): 2.6 cm | Length Verge to center (anal sphincter [1]; 80 mg, 180 min): 0.7 cm | Resting Abs ref Max (anal sphincter [1]; 80 mg, 180 min): 111.8 mm Hg | Resting Abs ref Mean (anal sphincter [1]; 80 mg, 180 min): 90.8 mm Hg | Resting rectal ref Max (anal sphincter [1]; 80 mg, 180 min): 109.2 mm Hg | Resting rectal ref Mean (anal sphincter [1]; 80 mg, 180 min): 88.2 mm Hg | Squeeze Abs ref mean (anal sphincter [1]; 80 mg, 180 min): 350.7 | Squeeze Rectal ref max (anal sphincter [1]; 80 mg, 180 min): 337.6 | Length HPV (anal sphincter [1]; 80 mg, 270 min): 2.5 cm | Length Verge to center (anal sphincter [1]; 80 mg, 270 min): 0.9 cm | Resting Abs ref Max (anal sphincter [1]; 80 mg, 270 min): 96.1 mm Hg | Resting Abs ref Mean (anal sphincter [1]; 80 mg, 270 min): 83.1 mm Hg | Resting rectal ref Max (anal sphincter [1]; 80 mg, 270 min): 92.5 mm Hg | Resting rectal ref Mean (anal sphincter [1]; 80 mg, 270 min): 79.5 mm Hg | Squeeze Abs ref mean (anal sphincter [1]; 80 mg, 270 min): 340.4 | Squeeze Rectal ref max (anal sphincter [1]; 80 mg, 270 min): 321.2 | anal sphincter pressures at resting and at squeezing conditions (anal sphincter [1]; 40 and 80 mg): increased in a dose-dependent manner | resting pressure (anal canal; 30% and 40%, compared with placebo): significant increase in resting pressure at both time points compared with placebo | median resting pressure (anal canal; concentrations of 10% and 20%): modest increase in median resting pressure, this was not statistically significant

Glucagon
rate of absorption [2]: relatively quickly absorbed

COC(=O)C1=C(C)NC(C)=C(C(=O)OC)C1c1ccccc1[N+](=O)[O-] [Nifedipine]
Resting Max Pressure Rectal Ref, Max (anal sphincter [3]; 4 mg): 151.0 | Resting Max Pressure Rectal Ref, Mean (anal sphincter [3]; 4 mg): 111.6 | Resting Max Pressure Rectal Ref, Median (anal sphincter [3]; 4 mg): 111.5 | Resting Max Pressure Rectal Ref, Min (anal sphincter [3]; 4 mg): 72.2 | Resting Mean Pressure Rectal Ref, Max (anal sphincter [3]; 4 mg): 124.0 | Resting Mean Pressure Rectal Ref, Mean (anal sphincter [3]; 4 mg): 94.2 | Resting Mean Pressure Rectal Ref, Median (anal sphincter [3]; 4 mg): 92.3 | Resting Mean Pressure Rectal Ref, Min (anal sphincter [3]; 4 mg): 57.7 | Resting Max Pressure Rectal Ref, Max (anal sphincter [3]; 12 mg): 187.1 | Resting Max Pressure Rectal Ref, Mean (anal sphincter [3]; 12 mg): 105.9 | Resting Max Pressure Rectal Ref, Median (anal sphincter [3]; 12 mg): 88.0 | Resting Max Pressure Rectal Ref, Min (anal sphincter [3]; 12 mg): 79.8 | Resting Mean Pressure Rectal Ref, Max (anal sphincter [3]; 12 mg): 89.4 | Resting Mean Pressure Rectal Ref, Mean (anal sphincter [3]; 12 mg): 75.0 | Resting Mean Pressure Rectal Ref, Median (anal sphincter [3]; 12 mg): 73.2 | Resting Mean Pressure Rectal Ref, Min (anal sphincter [3]; 12 mg): 58.9 | Resting Max Pressure Rectal Ref, Max (anal sphincter [3]; 24 mg): 153.7 | Resting Max Pressure Rectal Ref, Mean (anal sphincter [3]; 24 mg): 90.2 | Resting Max Pressure Rectal Ref, Median (anal sphincter [3]; 24 mg): 79.7 | Resting Max Pressure Rectal Ref, Min (anal sphincter [3]; 24 mg): 58.8 | Resting Mean Pressure Rectal Ref, Max (anal sphincter [3]; 24 mg): 80.0 | Resting Mean Pressure Rectal Ref, Mean (anal sphincter [3]; 24 mg): 63.9 | Resting Mean Pressure Rectal Ref, Median (anal sphincter [3]; 24 mg): 64.4 | Resting Mean Pressure Rectal Ref, Min (anal sphincter [3]; 24 mg): 51.7
